Laboratory results reported in ChEMBL document CHEMBL3826974, “Discovery of MK-8718, an HIV Protease Inhibitor Containing a Novel Morpholine Aspartate Binding Group” (ACS Med Chem Lett, 2016).

How the values were obtained:
[1] = system: Human immunodeficiency virus 1; experiment: Antiviral activity against HIV-1 infected in human MT4 cells assessed as inhibition of viral infection measured after 72 hrs; assay type: functional; details: Human immunodeficiency virus 1, MT4, 72 h
[2] = biological target: Protease (Human immunodeficiency virus 1, UniProt Q9YQ12); experiment: Inhibition of wild-type HIV1 protease expressed in Escherichia coli assessed as reduction in product formation preincubated for 30 mins followed by addition of Val-Ser-Gln-Asn-(beta-naphtyl)Ala-Pro-Ile-Val as substrate measured after 1 hr
Sequence of Protease (Q9YQ12 whole entry): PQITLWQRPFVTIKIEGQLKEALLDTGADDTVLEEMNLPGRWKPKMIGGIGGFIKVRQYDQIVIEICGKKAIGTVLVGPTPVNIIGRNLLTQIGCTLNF

[3] = Oral bioavailability in rat at 5 mg/kg; assay type: ADME, organism-based; details: in vivo
[4] = Clearance in rat at 1 mg/kg, iv or 5 mg/kg, po; assay type: ADME, organism-based; details: in vivo
[5] = Oral bioavailability in rat at 10 mg/kg; assay type: ADME, organism-based; details: in vivo
[6] = Clearance in rat at 2 mg/kg, iv or 10 mg/kg, po; assay type: ADME, organism-based; details: in vivo
[7] = system: Human immunodeficiency virus; experiment: Inhibition of HIV protease at 1 uM

IC50 [2] [nM]	bioavailability [3] [%]	clearance [4] [mL/min/kg]	bioavailability [5] [%]	clearance [6] [mL/min/kg]	inhibition [7] [%]	SMILES	IC95 [1] [nM]
0.04	–	–	–	–	–	COC(=O)N[C@H](C(=O)N[C@@H](Cc1ccccc1)[C@@H](O)CN(Cc1ccc(-c2ccccn2)cc1)NC(=O)[C@@H](NC(=O)OC)C(C)(C)C)C(C)(C)C [ATAZANAVIR]	17
14	< 5	81	–	–	–	COC(=O)N[C@H](C(=O)Nc1cnccc1CC[C@@H]1CN[C@H](COC(=O)NCC(F)(F)F)CO1)C(c1ccccc1)c1ccccc1	330
37	33	60	–	–	–	COC(=O)N[C@H](C(=O)Nc1ccccc1CC[C@@H]1CN[C@H](COC(=O)NC(C)C)CO1)C(c1ccccc1)c1ccccc1	190
8.2	–	–	14	22	–	N[C@H](C(=O)Nc1cccc(F)c1CC[C@@H]1CN[C@H](COC(=O)NCC(F)(F)F)CO1)[C@@H](c1ccc(F)cc1)c1cc(F)cc(F)c1	61
3.6	–	61	–	–	–	COC(=O)N[C@H](C(=O)Nc1ccccc1CC[C@@H]1CN[C@H](COC(=O)NCc2ccccc2F)CO1)C(c1ccccc1)c1ccccc1	180
–	–	–	–	–	11	COC(=O)N[C@H](C(=O)NCCCC1CNCCO1)C(c1ccccc1)c1ccccc1 (stereo partly drawn)	–
3.4	17	45	–	–	–	COC(=O)N[C@H](C(=O)Nc1ccccc1CC[C@@H]1CN[C@H](COC(=O)NCc2cccc(Cl)n2)CO1)C(c1ccccc1)c1ccccc1	150
3.1	–	–	–	–	–	N[C@H](C(=O)Nc1cccc(F)c1CC[C@@H]1CN[C@H](COC(=O)NCC(F)(F)F)CO1)C(c1ccccc1)c1ccccc1	230
2.4	–	–	–	–	–	N[C@H](C(=O)Nc1cncc(F)c1CC[C@@H]1CN[C@H](COC(=O)NCC(F)(F)F)CO1)[C@@H](c1ccc(F)cc1)c1cc(F)cc(F)c1	130
0.8	–	–	25	11	–	N[C@H](C(=O)Nc1cncc(F)c1CC[C@@H]1CN[C@H](COC(=O)NCC(F)(F)F)CO1)[C@@H](c1ccc(Cl)cc1)c1cc(F)cc(F)c1	49
2.4	–	–	37	16	–	N[C@H](C(=O)Nc1cncc(F)c1CC[C@@H]1CN[C@H](COC(=O)NCC(F)(F)F)CO1)[C@@H](c1ccc(F)cc1)c1cccc(F)c1	66
20	16	30	–	–	–	COC(=O)N[C@H](C(=O)Nc1ccccc1CC[C@@H]1CN[C@H](COC(N)=O)CO1)C(c1ccccc1)c1ccccc1	120
27	19	36	–	–	–	COC(=O)N[C@H](C(=O)Nc1ccccc1CC[C@@H]1CN[C@H](COC(=O)NCC(F)(F)F)CO1)C(c1ccccc1)c1ccccc1	120
4.1	47	49	–	–	–	COC(=O)N[C@H](C(=O)Nc1ccccc1CC[C@@H]1CN[C@H](COC(=O)NCc2ccc(F)cc2)CO1)C(c1ccccc1)c1ccccc1	170
6.4	–	–	30	45	–	N[C@H](C(=O)Nc1cccc(F)c1CC[C@@H]1CN[C@H](COC(=O)NCC(F)(F)F)CO1)[C@@H](c1ccc(F)cc1)c1cccc(F)c1	75
12	37	36	–	–	–	COC(=O)N[C@H](C(=O)Nc1cccc(F)c1CC[C@@H]1CN[C@H](COC(=O)NCC(F)(F)F)CO1)C(c1ccccc1)c1ccccc1	95
3.5	< 5	87	–	–	–	COC(=O)N[C@H](C(=O)Nc1ccccc1CC[C@@H]1CN[C@H](COC(=O)N[C@H]2CCc3ccccc32)CO1)C(c1ccccc1)c1ccccc1	63
2.4	13	33	–	–	–	COC(=O)N[C@H](C(=O)Nc1ccccc1CC[C@@H]1CN[C@H](COC(=O)NCc2ccc(Cl)s2)CO1)C(c1ccccc1)c1ccccc1	170
9.9	–	–	59	13	–	N[C@H](C(=O)Nc1cncc(F)c1CC[C@@H]1CN[C@H](COC(=O)NCC(F)(F)F)CO1)C(c1ccccc1)c1ccccc1	150
3.5	15	11	–	–	–	COC(=O)N[C@H](C(=O)Nc1cncc(F)c1CC[C@@H]1CN[C@H](COC(=O)NCC(F)(F)F)CO1)C(c1ccccc1)c1ccccc1	94
6.1	< 5	27	–	–	–	COC(=O)N[C@H](C(=O)Nc1ccccc1CC[C@@H]1CN[C@H](COC(=O)NCc2ccccc2)CO1)C(c1ccccc1)c1ccccc1	200
9.7	< 5	110	–	–	–	COC(=O)N[C@H](C(=O)Nc1ccccc1CC[C@@H]1CN[C@H](COC(=O)N[C@@H]2CCc3ccccc32)CO1)C(c1ccccc1)c1ccccc1	370
